Results as given in publication PMC5570892, “Indole-based perenosins as highly potent HCl transporters and potential anti-cancer agents” (Scientific Reports, 2017).

Legend:
MDA-MB-231 cells = experiment: Annexin-V flow cytometric apoptosis assay; assay type: cell-based, human
Experimental: The specific late onset of affecting cell viability induced by perenosins is interesting, and to the best of our knowledge this phenomenon has not been observed for other anion transporters. […] It is known that synthetic transporters can disrupt ion homeostasis in cells and induce cell death via an apoptotic pathway, [22], [32], [63], [64].
S11.3 Apoptosis Evaluation through Annexin-V Assay
MDA-MB-231 cells (1x10^5 cells) were seeded in 6-well plates and, after 24 h, they were treated with […]
Afterwards, cells were detached, centrifuged at 300 g for 5 min and resuspended in 1 ml of 1X PBS-1% FBS. Then, 100 µl of cell suspension were mixed with Annexin-V kit buffer (1:1; Muse Annexin V & Dead Cell Assay, Merck Millipore, Merck KGaA, Darmstadt, Germany). After 20 min incubation at room temperature, cells were examined on the Muse™ Cell Analyzer (Merck Millipore). All the conditions were assessed in three independent experiments. Results are shown as the mean value ± S.D. and representative results are shown in the […]
Figure S154. Flow cytometry of MDA-MB-231 cells treated with IC50 concentrations of compound 2 and 6 for 48 and 72 hours plus 10 µM of compound 6 for 72 h. Axes show Annexin-V binding versus […]
(1 picture or pasted object on this page, not shown here)

[1] = Cl^−/NO3^− ISE assay in POPC:cholesterol (7:3) vesicles; assay type: biochemical; conditions: 0.1 mol% loading, pH 7.2
Experimental: To further probe other aspects of transmembrane transport mechanism of perenosins, a variety of studies were employed. […] Using the same conditions for sulfate transport, and adding a bicarbonate pulse at 120 s to give a final external bicarbonate concentration of 40 mM, allowed observation of potential Cl^−/HCO3 ^− antiport elicited by 1d and 2–8; no Cl^− efflux was detected, presumably due to the basicity of bicarbonate anion preventing protonation of the imine-N2. Finally, preincorporation of 1d and 2–6 into POPC vesicles followed by performing a similar NMDG-Cl assay, and subsequent dilution of the resulting lipid solution, investigated how perenosins behave in a lipid membrane environment. […] See Supplementary Information for more details of results and experimental details of these assays.
S10. Anion Transport Studies
S10.1. General Procedure for the ISE Assay
Unilamellar vesicles were prepared using previously reported literature procedures7-9. A lipid film of POPC (1-palmitoyl-2-oleoyl-sn-glycero-3-phosphocholine) or POPC:cholesterol (7:3 molar ratio) was prepared from a chloroform solution under reduced pressure and then dried under vacuum for 4 or more hours. The lipid film was rehydrated by vortexing with an internal solution of buffered metal chloride salt (usually 489 mM MCl). The lipid suspension was then subjected to 9 freeze-thaw cycles and left to rest at room temperature for 30 minutes. After this, the suspension was extruded 25 times through a 200 nm polycarbonate membrane resulting in unilamellar vesicles of a mean diameter of 200 nm. […]
The lipid stock was diluted with the external buffer solution to a standard volume (5 mL), to afford a solution with a lipid concentration of 1 mM. The compounds were added as a DMSO solution (10 μL) at the start of the experiment and the resulting chloride efflux was monitored using a chloride selective electrode over 5 minutes. After this time, detergent (50 μL of Triton X-100 (11 w%) in H2O:DMSO (7:1 v/v)) was added to lyse the vesicles and after 7 minutes a final chloride efflux reading was taken. […]

Structure (SMILES)	apoptosis induction (Annexin-V) (MDA-MB-231 cells; 10 µM)	apoptosis induction (Annexin-V) (MDA-MB-231 cells; at IC50 value, 48 h and 72 h)	chloride efflux in POPC:Cholesterol (7:3) vesicles [1]
CCCCCc1cc2cc(C)cc(/N=C/c3[nH]c(C)c(CCCCC)c3C)c2[nH]1 [Perenosin 6]	increase in both early and late apoptotic cell populations	slight increase in apoptotic cells	
CCCCCc1cc2cc(C)cc(/N=C/c3[nH]c4ccccc4c3C)c2[nH]1 [Perenosin 8]			no chloride efflux
CCCCCc1cc2cc(C)cc(/N=C/c3[nH]c(C)cc3C)c2[nH]1 [Perenosin 2]		clearly induces cell death by apoptosis	70%
CCCCCc1cc(/N=C/c2[nH]c3ccccc3c2C)c2[nH]ccc2c1 [Perenosin 7]			no chloride efflux
